Results as given in publication PMC7997032, “Organic synthesis and anti-influenza A virus activity of cyclobakuchiols A, B, C, and D” (PLoS ONE, 2021).
Where “and” joins values, the source holds several entries; their conditions need not be identical. Equal entries are not always repeated.

Legend:
A/PR/8/34 virus [1] = assay: Influenza A viral growth assay (viral titer of culture media); format: cell-based, influenza A H1N1 virus; design: viral titer of culture media, individual replicate / viral titer of culture media, ave: unit not given here; settings: A/PR/8/34 (PR8), 12.5uM, average of #1-3 exp (n=9)
[2] = tested on: NAD(P)H quinone oxidoreductase 1 (Nqo1); assay: RT-qPCR of Nqo1 mRNA in MDCK cells with or without A/PR/8/34 virus; format: cell-based, canine; settings: 12.5uM, MDCK, relative to virus - DMSO; for NQO1 Canis lupus mRNA, ave: ave of #1-3 exp; for NQO1 Canis lupus mRNA, individual replicates: replicates 1-3 of #1, #2, #3 exp, listed as Cyclobakuchiol D
Nrf2 = Nrf2 reporter assay (dual luciferase system) in MDCK cells; format: cell-based, canine
A/PR/8/34 virus [3] = assay: Immunofluorescence staining of viral NP in influenza A virus-infected MDCK cells; settings: for NP/DAPI (%) ave: average of 9 wells
Protocol: (§1) MDCK cells were seeded on a 96-well plate at 1 × 10^4 cells/well. […] Each mixture was added to the cells at 37°C in the presence of 5% CO2. […] After influenza A viral infection for 24 h, the cells were fixed with 4% paraformaldehyde in phosphate-buffered saline (PBS) for 30 min at 4°C and subsequently permeabilized by the addition of 0.3% Triton X-100 for 20 min at 25°C. A mouse primary antibody was used to detect the NP of A/PR/8/34 or A/WSN/33 viruses (FluA-NP 4F1; SouthernBiotech, AL, USA). Alexa Fluor488-conjugated goat anti-mouse IgG (H + L) antibody (Thermo Fisher Scientific) was used as the secondary antibody. Cell nuclei were then stained using diamidino-2-phenylindole (DAPI) (Thermo Fisher Scientific). Wells were photographed using a fluorescence microscope (BIOREVO BZ-X700; Keyence, Osaka, Japan). The proportion of influenza A NP-positive cells per DAPI-positive cells was calculated based on measurements recorded using BZ-X Analyzer software (Keyence).

[4] = tested on: canine interferon-β (Ifn-β); assay: RT-qPCR of Ifn-β mRNA in MDCK cells with or without A/PR/8/34 virus; format: cell-based; settings: 12.5uM, relative to virus - DMSO; for MDCK IFN-b mRNA, ave: ave of #1-3 exp; for MDCK IFN-b mRNA, individual replicates: replicates 1-3 of #1, #2, #3 exp, listed as Cyclobakuchiol D
A/WSN/33 virus [5] = assay: Influenza A viral growth assay (viral titer of culture media); format: cell-based, influenza A H1N1 virus; settings: A/WSN/33 (WSN), 12.5uM, average of #1-3 exp (n=9)
A/PR/8/34 virus [6] = assay: RT-qPCR of viral mRNAs (NP, NS1, PA, PB1, PB2, M2) in infected MDCK cells; format: cell-based, influenza A H1N1 virus
A/WSN/33 virus [7] = assay: Immunofluorescence staining of viral NP in influenza A virus-infected MDCK cells; settings: WSN
Protocol: as §1

A/PR/8/34 virus [8] = format: cell-based; settings: 12.5 μM, 24h WB
[9] = MDCK cells, PR8 virus, relative to DMSO (about 1), ave of #1-3 exp (9 values)
[10] = MDCK cells, PR8 virus, relative to DMSO, replicates 1-3 of #1, #2, #3 exp, listed as Cyclobakuchiol D
[11] = single experiment, listed as cyclo D

## C=C[C@]1(C)CCC(C(C)(C)O)C(c2ccc(O)cc2)C1 (stereo in doubt) [cyclobakuchiol D]
A/PR/8/34 virus [1]; 12h
  viral titer of culture media, ave: 23333.3
A/PR/8/34 virus [1]; 24h
  viral titer of culture media, ave: 46666.7
A/PR/8/34 virus [1]; 48h
  viral titer of culture media, ave: 42222.2
A/PR/8/34 virus [1]; 72h
  viral titer of culture media, ave: 51111.1
[2]; virus + (PR8)
  NQO1 Canis lupus mRNA, ave: 1.2349
  NQO1 Canis lupus mRNA, individual replicates: 1.289 and 1.376 and 1.34 and 1.5629 and 0.8611 and 0.8923 and 0.9522 and 1.447 and 1.3929
[2]; virus -
  NQO1 Canis lupus mRNA, ave: 1.178
  NQO1 Canis lupus mRNA, individual replicates: 1.099 and 1.305 and 1.308 and 1.291 and 1.087 and 1.132 and 1.031 and 1.075 and 1.276
Nrf2; 12.5 μM, 24 h, MDCK cells
  Nrf2 activation (reporter assay) in contrast to DMSO: did not induce Nrf2 activation
Nrf2; 12.5uM, relative to DMSO trans+, ave of #1-3 exp
  pNQO1-ARE-Luc NRF2 reporter assay, ave: 1.2008
Nrf2; 12.5uM, relative to DMSO trans+, two values each of #1, #2, #3 exp, listed as Cyclobakuchiol D
  pNQO1-ARE-Luc NRF2 reporter assay, individual replicates: 1.181 and 1.006 and 1.453 and 1.158 and 1.274 and 1.134
A/PR/8/34 virus [3]; A/PR/8/34, 3.13 uM
  NP/DAPI (%) ave: 8.962%
A/PR/8/34 virus [3]; A/PR/8/34, 3.13 uM, single well, listed as Cyclobaku. D
  NP (NP-positive cell count): 26 and 38 and 24 and 36 and 32 and 28 and 35 and 30
A/PR/8/34 virus [3]; A/PR/8/34, 6.25 uM
  NP/DAPI (%) ave: 5.506%
A/PR/8/34 virus [3]; A/PR/8/34, 12.5 uM
  NP/DAPI (%) ave: 1.974%
A/PR/8/34 virus [3]; A/PR/8/34, 25 uM
  NP/DAPI (%) ave: 1.609%
A/PR/8/34 virus [3]; Influenza A virus, PR/8, MDCK, read-out: half maximal (50%) inhibitory concentration (IC50)
  IC50: 8.8 ± 2.4 µM
[4]; virus +
  MDCK IFN-b mRNA, ave: 17.4654
  MDCK IFN-b mRNA, individual replicates: 2.418 and 33.9435 and 15.7832 and 32.7435 and 6.882 and 51.6835 and 8.73 and 2.955 and 2.05
[4]; virus -
  MDCK IFN-b mRNA, ave: 2.784
  MDCK IFN-b mRNA, individual replicates: 0.8154 and 7.71 and 7.894 and 3.201 and 1.087 and 1.374 and 1.346 and 0.9591 and 0.6654
A/WSN/33 virus [5]; 12h
  viral titer of culture media, ave: 10344.4
A/WSN/33 virus [5]; 24h
  viral titer of culture media, ave: 25855556
A/WSN/33 virus [5]; 48h
  viral titer of culture media, ave: 191111111
A/WSN/33 virus [5]; 72h
  viral titer of culture media, ave: 140200000
A/PR/8/34 virus [6]; MDCK PR8, NP mRNA, relative (DMSO about 1), average of #1-3 exp (n=9)
  PR8 NP gene expression qPCR, ave: 0.07153
A/PR/8/34 virus [6]; MDCK PR8, NP mRNA, relative (DMSO about 1), replicates of #1-3 exp, listed as Cyclobakuchiol D
  PR8 NP gene expression qPCR, individual replicate: 0.03886 and 0.05994 and 0.05606 and 0.05458 and 0.125 and 0.1151 and 0.1425 and 0.0275 and 0.02409
A/PR/8/34 virus [6]; MDCK PR8, NS1 mRNA, relative (DMSO about 1), average of #1-3 exp (n=9)
  PR8 NS1 gene expression qPCR, ave: 0.04518
A/PR/8/34 virus [6]; MDCK PR8, NS1 mRNA, relative (DMSO about 1), replicates of #1-3 exp, listed as Cyclobakuchiol D
  PR8 NS1 gene expression qPCR, individual replicate: 0.02832 and 0.04013 and 0.04518 and 0.04355 and 0.06568 and 0.06468 and 0.07589 and 0.02316 and 0.02
A/PR/8/34 virus [6]; MDCK PR8, PA mRNA, relative (DMSO about 1), average of #1-3 exp (n=9)
  PR8 PA gene expression qPCR, ave: 0.04749
A/PR/8/34 virus [6]; MDCK PR8, PA mRNA, relative (DMSO about 1), replicates of #1-3 exp, listed as Cyclobakuchiol D
  PR8 PA gene expression qPCR, individual replicate: 0.03007 and 0.03859 and 0.03028 and 0.03293 and 0.08115 and 0.07941 and 0.08873 and 0.02395 and 0.02226
A/PR/8/34 virus [6]; [9]
  PR8 M2 gene expression qPCR, ave: 0.04919
  PR8 PB1 gene expression qPCR, ave: 0.04173
  PR8 PB2 gene expression qPCR, ave: 0.05311
A/PR/8/34 virus [6]; [10]
  PR8 M2 gene expression qPCR, individual replicates: 0.03101 and 0.05567 and 0.03306 and 0.04539 and 0.07613 and 0.07839 and 0.08038 and 0.02111 and 0.02153
  PR8 PB1 gene expression qPCR, individual replicates: 0.03148 and 0.02292 and 0.01741 and 0.02275 and 0.0784 and 0.07991 and 0.07514 and 0.02623 and 0.02132
  PR8 PB2 gene expression qPCR, individual replicates: 0.03118 and 0.04821 and 0.03936 and 0.04228 and 0.08338 and 0.07806 and 0.1008 and 0.0302 and 0.02454
A/WSN/33 virus [7]; 3.13uM, ave of 9 values (3 exp)
  NP/DAPI (%) ave: 30.4806%
A/WSN/33 virus [7]; 6.25uM, ave of 9 values (3 exp)
  NP/DAPI (%) ave: 29.9222%
A/WSN/33 virus [7]; 12.5uM, ave of 9 values (3 exp)
  NP/DAPI (%) ave: 34.4723%
A/WSN/33 virus [7]; 25uM, ave of 9 values (3 exp)
  NP/DAPI (%) ave: 38.5623%
A/WSN/33 virus [7]; ave summary, 3.13%
  NP/DAPI (%) ave: 30.4806%
A/WSN/33 virus [7]; ave summary, 6.25%
  NP/DAPI (%) ave: 29.9222%
A/WSN/33 virus [7]; ave summary, 12.50%
  NP/DAPI (%) ave: 34.4723%
A/WSN/33 virus [7]; ave summary, 25%
  NP/DAPI (%) ave: 38.5623%
A/PR/8/34 virus [8]; average of 3 experiments
  NP/b-actin ave: 0.8053
  NS1/b-actin ave: 0.5049
A/PR/8/34 virus [8]; [11]
  NP mean (western blot signal intensity, ImageJ): 94.385 and 99.104 and 119.4
  NP/b-actin: 0.9145 and 0.7726 and 0.7289
  NS1/b-actin: 0.4761 and 0.5377 and 0.5009
  NS1 mean (western blot signal intensity, ImageJ): 65.696 and 68.111 and 62.157
